Laboratory results taken from patent US20170305981A1, “SYNTHETIC PEPTIDES” (The University of Chicago, priority 2014, published 2017).
Values joined by “and” are separate entries in the source; they are usually repeats but may differ in a detail not shown here. Equal entries are not always repeated. “Also recorded” adds a separate entry of the source.

Columns and labels:
lipoprotein lipase (LpL) = test: Lipoprotein lipase (LpL) in vitro activity assay with fluorogenic TG substrate EnzChek; format: biochemical; settings: for LpL stimulating activity of domain substitution peptides relative to AV199-232: knockout substitutions in AV199-232 domains
Description: FIG. 3A-C. Lipoprotein lipase (LpL) activity assay using a fluorogenic TG analog, EnzChek (Invitrogen). The enzyme reaction mix was composed of increasing concentrations of LpL in 100 μl Tris buffered saline (TBS), 1% BSA, pH 7.8, 0.015% Zwittergent 3-14 and 1 μM EnzChek substrate. Reaction was monitored by fluorescence (λex=482 nm, λem=515 nm) and the relative fluorescence units (RFU) against time plotted (A). BODIPY labeled fatty acid (BODIPY-FA) was used to determine product concentration generated with the lipase (B). Structure of the EnzChek substrate (E33955) which was purchased from Invitrogen Inc. (C).
To search for lipase stimulators, a lipase assay was employed using a commercially available fluorogenic-TG substrate (EnzChek) supplied by Molecular Probes (FIG. 3). The protocol was adapted from Basu et al., (Basu et al. (2011) J.Lipid Res. 52, 826-832; herein incorporated by reference in its entirety) with minor modifications in pH and detergent. For in vitro assays, LpL (SIGMA) was diluted to 0.12 μg/ml in 20 mM Tris-HCl, 150 mM NaCl, 1% BSA, 0.015% Zwittergent 3-14, pH 7.8, 1 μM EnzChek substrate, prepared in 96-well black microtiter plates. For some assays the plates were incubates at 37° C. for 10min. Detection was performed in a Synergy H1 Multi-Mode Reader using excitation/emission wavelengths of 482 nm and 515 nm, respectively. […] Moreover, the product produced could be quantified using BODIPY-C12 fatty acids to determine the molar rates of enzyme reaction. Since the assay uses a non-toxic substrate and a low amount of neutral detergent it is possible to use this assay with live cells (FIG. 4). The lipase activities assayed were sensitive to both the removal of lipase (HL) from the surface of hepatocytes (by a heparin pre-wash) and to apolipoproteins present in isolated lipoproteins, VLDL, LDL and HDL preparations.

LpL [1] = test: LpL activity in the presence of human plasma / plasma TG-rich lipoproteins; format: biochemical; settings: normal and dyslipidemic plasma
Description: (§1) The removal of cell surface LpL with heparin reduced activity.
(§2) Plasma contains lipoproteins with apoC-III and ANGPT4, known inhibitors of LpL activity. However, LpL activity in live leukocytes was stimulated by AV199-232 (FIG. 23C). […] AV199-232 was incubated with whole plasma from normal and diabetic/dyslipidemic plasma and then the TG-rich lipoproteins (Lp) were isolated by PEG-8000 precipitation and added to LpL assays (30 μg/ml).

VLDL = VLDL binding, complexes isolated by gel filtration on Sepharose CL-4B, then LpL assay
Description: VLDL (100 μg) was incubated with AV199-232 (50 μg) and complexes were isolated from free peptide by gel filtration on a Sepharose CL-4B column (FIG. 15A).

Leukocyte-LpL = molecular target: T1, Leukocyte-LpL (Homo sapiens, UniProt P06858); test: LpL activity in live leukocytes isolated from fresh human blood; format: cell-based
T1 construct: endogenous in cells; host or cells: leukocytes isolated from fresh human blood
T1 sequence (P06858 28-475): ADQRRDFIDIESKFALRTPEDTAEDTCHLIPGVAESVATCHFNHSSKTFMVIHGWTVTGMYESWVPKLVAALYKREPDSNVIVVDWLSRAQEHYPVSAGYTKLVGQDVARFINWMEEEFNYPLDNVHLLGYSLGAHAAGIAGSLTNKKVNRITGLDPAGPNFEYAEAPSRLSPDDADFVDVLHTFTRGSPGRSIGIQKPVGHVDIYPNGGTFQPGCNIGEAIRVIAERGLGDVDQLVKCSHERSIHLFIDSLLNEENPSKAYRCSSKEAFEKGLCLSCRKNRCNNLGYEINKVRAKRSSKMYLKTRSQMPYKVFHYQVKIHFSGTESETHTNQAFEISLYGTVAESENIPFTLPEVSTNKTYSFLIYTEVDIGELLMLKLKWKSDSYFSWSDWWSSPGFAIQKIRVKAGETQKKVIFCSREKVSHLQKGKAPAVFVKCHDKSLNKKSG
Description: as §1, §2

LpL in THP-1 macrophages = molecular target: T2, LpL in THP-1 macrophages (Homo sapiens, UniProt P06858); test: Lipase activity in cultures of live THP-1 macrophages; format: cell-based; settings: live THP-1 macrophages known to express LpL
T2 construct: endogenous in cells; host or cells: THP-1 macrophages
T2 sequence (P06858 28-475): T1 sequence (P06858 28-475)
Description: FIG. 8. Determining the minimum peptide sequence (A) harboring full lipase stimulating activity (B, D). […] Assays were performed by adding 10 μM of peptide to in vitro LpL assays (B) or to hepatocyte (HepG2) cell cultures (D). In 24 well tissue culture plates, cells were incubated for 1 hr at 37° C. in 200 μL TBS, 1.5% BSA, 0.2% zwittergent 3-14, 1μM EnzChek substrate. AV199-232 was also active in cultures of live THP-1 macrophages known to express LpL (C).

LpL [2] = test: LpL enzyme kinetics (Vmax, Km) by Michaelis-Menten fitting; format: biochemical
Description: FIG. 9. […] Lipase reaction was performed with different substrate concentrations (0-25 μM) (A, C, D) to determine the kinetic parameters of LpL enzymatic activity, +/− VLDL (10 μg/ml) and +/− AV199-232 (2.5 μM). (B) The addition of VLDL reduced the enzymes affinity for substrate by 5.3-fold which is consistent with inhibition by apoC-III. […] Kinetic parameters were determined using GraphPad Prism software curve fitting to the Michaelis-Menten enzyme kinetic equation.
The influence of AV199-232 on the kinetic parameters of LpL activity (e.g., Vmax and Km) was investigated (FIG. 9A-B). […] This was due to the apoC-III content of VLDL. […] Also AV199-232 was functional in the presence of apoC-III in VLDL. The effect of different lipoproteins on LpL kinetics was compared (FIG. 9D).

[3] = Heparin binding (circular dichroism on addition of heparin)
Description: FIG. 10. AV199-232 is an a-helical peptide that binds heparin. Peptide folding and conformation was analyzed experimentally by circular dichroism spectroscopy (A) and calculated to be ˜42% α-helical which increased to ˜76% on binding heparin.
Given that there appeared to be a periodicity in the sequence of AV199-232 consisting of alternating polar and non-polar residues, the possibility that the peptide was folded into a amphipathic α-helix was investigated (FIG. 10). […] In silico analysis also predicted a high α-helical content. […] The amphipathic nature of the peptide was evident with polar residues and nonpolar residues (domain-L) organized to opposite sides of the helix. Domain-L is responsible for binding to VLDL. Domain-1, domain-2 and domain-H were also identified on the polar side.

[4] = peptide added to LpL without VLDL, 10 μM
[5] = peptides 80 μg/ml preincubated with VLDL 20 μg/ml

Question: With “Dom1KO: AV199-232 with domain 1 substitutions R12Q/D30S (ARLSRCVQVLSQKLTLKAKALHARIQQNLSQLRE)” as the substance, how does the “LpL stimulating activity of domain substitution peptides relative to AV199-232” value (lipoprotein lipase (LpL)) read?
Answer: significant reduction

Question: For “AV250-288: peptide spanning residues 250-288 of apoA-V (DPQMLSEEVRQRLQAFRQDTYLQIAAFTRAIDQETEEVQ)”, which “influence on LpL activity” value (lipoprotein lipase (LpL); in the presence of VLDL) is on record?
Answer: Little or no stimulating activity; also recorded: did not

Question: What about the “influence on LpL activity” value (lipoprotein lipase (LpL); [4]) of the same substance?
Answer: Little or no stimulating activity

Question: For “SEQ ID NO: 22: AV-H/K with L10Q, L21Q and L29Q substitutions (ARLSRCVQVQSRKLTQKAKALKARIQQNQDQLRE; Mutated wild-type peptide)”, which “lipase stimulating activity relative to AV-H/K” value (lipoprotein lipase (LpL); [5]) is on record?
Answer: reduced lipase stimulating activity

Question: Which “LpL stimulating activity of domain substitution peptides relative to AV199-232” value (lipoprotein lipase (LpL)) does the source give for “Dom1(E34K): AV199-232 with E34K substitution in domain 1 (ARLSRCVQVLSRKLTLKAKALHARIQQNLDQLRK)” here?
Answer: did not influence AV199-232 activity

Question: Which results are given for “AV199-237: synthetic peptide spanning residues 199-237 of mature human apoA-V (ARLSRCVQVLSRKLTLKAKALHARIQQNLDQLREELSRA; listed as Homo sapiens)”?
Answer: influence on LpL activity (lipoprotein lipase (LpL); in the presence of VLDL): exceeded that seen with an apoC-II peptide (C-II50-79); also recorded: stimulated LpL activity in the presence of VLDL; influence on LpL activity (lipoprotein lipase (LpL); [4]): no change in activity; also recorded: did not increase enzyme activity; stimulation of LpL activity (lipoprotein lipase (LpL); peptide incubated with VLDL before adding to LpL, 10 μM): ~4 fold

Question: For “Dom2KO: AV199-232 with domain 2 substitutions K13Q/K17Q (ARLSRCVQVLSRQLTLQAKALHARIQQNLDQLRE)”, which “LpL stimulating activity of domain substitution peptides relative to AV199-232” value (lipoprotein lipase (LpL)) is on record?
Answer: significant reduction

Question: For “DomLKO: peptide with domain L substitutions L10Q/L21Q/L29Q (ARLSRCVQVQSRKLTLKAKAQHARIQQNQDQLRE)”, which “LpL stimulating activity of domain substitution peptides relative to AV199-232” value (lipoprotein lipase (LpL)) is on record?
Answer: moderate reduction in activity

Question: For “AV-H/K: AV199-232 peptide with H in domain-H replaced with a K (ARLSRCVQVLSRKLTLKAKALKARIQQNLDQLRE; Mutated wild-type peptide)”, which “stimulation of LpL activity in the presence of plasma” value (LpL [1]) is on record?
Answer: stimulates LpL

Question: With “SEQ ID NO: 23: AV-H/K with L10F and L29F substitutions (ARLSRCVQVFSRKLTLKAKALKARIQQNFDQLRE; Mutated wild-type peptide)” as the substance, how does the “improvement in lipase stimulating activity relative to AV-H/K” value (lipoprotein lipase (LpL); [5]) read?
Answer: about 2 fold

Question: With “AV199-232: 34-residue peptide, residues 199-232 of apoA-V; AV199-237 shortened by 5 residues (ARLSRCVQVLSRKLTLKAKALHARIQQNLDQLRE; listed as Homo sapiens)” as the substance, how does the VLDL binding (VLDL; VLDL 100 μg incubated with AV199-232 50 μg) read?
Answer: binds VLDL

Question: And the “LpL stimulation by the isolated VLDL:AV199-232 complex” value (VLDL; void fraction (Vo) of gel filtration added to LpL)?
Answer: effective at stimulating LpL activity; also recorded: stimulates LpL activity

Question: And the “stimulation of LpL activity in live leukocytes” value (Leukocyte-LpL)?
Answer: responds; also recorded: stimulated; also recorded: responsive

Question: What about the “stimulation of LpL activity in the presence of plasma” value (LpL [1]) of the same substance?
Answer: stimulates LpL activity

Question: What about the “lipase stimulating activity in THP-1 macrophages” value (LpL in THP-1 macrophages) of the same substance?
Answer: active

Question: And the “increase of LpL's apparent affinity for substrate (Km improvement)” value (LpL [2]; AV199-232 2.5 μM + VLDL 10 μg/ml)?
Answer: ~8 fold and 7.8 fold

Question: What about the “changes in the Vmax and Km of LpL” value (LpL [2]; AV199-232 2.5 μM without VLDL) of the same substance?
Answer: only marginal changes

Question: What about the heparin binding [3] of the same substance?
Answer: heparin binding activity; also recorded: binds heparin

Question: And the “lipase stimulating activity of the shortened peptide relative to AV199-237” value (lipoprotein lipase (LpL); 10 μM, in vitro LpL assays and HepG2 cell cultures)?
Answer: harbored full activity and was actually somewhat more potent; also recorded: enhancement of activity
